Reference: patent US20130252816A1, “HERBICIDAL COMPOSITION AND USE THEREOF” (Syngenta Crop Protection LLC, priority 2010, published 2013)

Experiments:
[1] = test system: Stellaria media; assay: Example 1: adjuvants alone, visual % damage, pots in glasshouse; assay type: in vivo
Method: (§1) The effect of different adjuvants (see Table 1 below) on the growth of broadleaf weed and grass species was investigated and compared to untreated (water only) control weeds.
(§2) Plates, each with 48 pots measuring 2.7 cm diameter and 5 cm deep, were filled with TKS1 growing media (Floragard, Germany). Seeds of Taraxacum officinale, Stellaria media or Poa annua were sown on the surface (10 to 20 per pot). Plants were grown in glasshouse at a temperature of 18 to 20° C. and at 60% relative humidity.
(§3) Plants were treated 15 (Stellaria, Poa) and 34 (Taraxacum) days after sowing with 60 μl of a 1.25, 2.5, 5 and 10% (w/v) solution of adjuvant using a hand airbrush.
(§4) Visual assessment of the percentage damage to the plant was carried out 1 day and 6 days from application.
(§5) Damage was assessed as wilting, desiccation or any other kind of visual injury in comparison to the untreated control (water only).

[2] = test system: Poa annua; assay: as above; assay type: in vivo
Method: as §1, §2, §3, §4, §5

[3] = test system: Taraxacum officinale; assay: as above; assay type: in vivo
Method: as §1, §2, §3, §4, §5

[4] = test system: Stellaria media; assay: Example 2: alcohol ethoxylate adjuvants without glyphosate, visual % damage, tracksprayer 300 l/ha; assay type: in vivo
From the text: (§6) The effect of different types of alcohol ethoxylate (branched—Genapol X-series, and unbranched—Genapol O-series, differing degrees of ethoxylation, see Table 3 below for more details), on unwanted vegetation (broadleaf weed and grass species), in the absence of glyphosate, was investigated and compared to untreated (water only) control weeds.
(§7) Troughs (measuring 16 cm by 13 cm by 5 cm) were filled with local field soil. Seeds of Veronica persica, Stellaria media, Trifolium repens and Poa annua were sown 24 days before application of test samples. Plants were grown in the glasshouse at 18 to 20° C. and 60% relative humidity. Application of alcohol ethoxylate test samples was carried out using a tracksprayer, spraying at a rate of 300 l/ha. Plants were kept in glasshouse and visual assessment of the estimated percentage damage to the plant was carried out 1, 7, and 14 days from application.
as §5

[5] = test system: Veronica persica; assay: as above; assay type: in vivo
From the text: as §6, §7, §5

[6] = test system: Poa annua; assay: as above; assay type: in vivo
From the text: as §6, §7, §5

[7] = test system: Trifolium repens; assay: as above; assay type: in vivo
From the text: as §6, §7, §5

[8] = test system: broadleaf weed and grass species; assay: Example 2: overall statement on alcohol ethoxylates without glyphosate; assay type: in vivo; conditions: absence of glyphosate
From the text: as §6, §7, §5

[9] = test system: treated plants; conditions: after treatment, glyphosate per se; cited from earlier work
[10] = test system: broadleaf weeds and grasses; assay: Example 1: overall statement on adjuvants alone; assay type: in vivo; conditions: 1 and 6 days after treatment, adjuvant alone
Method: as §1, §2, §3, §4, §5

Oleyl alcohol polyglycol ether with 5 moles of ethoxylation [GenapolO050]
avg % damage 1 DAA Stellaria media ([1]; adjuvant 1.25% w/v): 0% | avg % damage 6 DAA Stellaria media ([1]; adjuvant 1.25% w/v): 0% | avg % damage 1 DAA Stellaria media ([1]; adjuvant 2.5% w/v): 10% | avg % damage 6 DAA Stellaria media ([1]; adjuvant 2.5% w/v): 15% | avg % damage 1 DAA Stellaria media ([1]; adjuvant 5% w/v): 15% | avg % damage 6 DAA Stellaria media ([1]; adjuvant 5% w/v): 25% | avg % damage 1 DAA Stellaria media ([1]; adjuvant 10% w/v): 30% | avg % damage 6 DAA Stellaria media ([1]; adjuvant 10% w/v): 25% | avg % damage 1 DAA Poa annua ([2]; adjuvant 1.25% w/v): 0% | avg % damage 6 DAA Poa annua ([2]; adjuvant 1.25% w/v): 5% | avg % damage 1 DAA Poa annua ([2]; adjuvant 2.5% w/v): 0% | avg % damage 6 DAA Poa annua ([2]; adjuvant 2.5% w/v): 5% | avg % damage 1 DAA Poa annua ([2]; adjuvant 5% w/v): 0% | avg % damage 6 DAA Poa annua ([2]; adjuvant 5% w/v): 10% | avg % damage 1 DAA Poa annua ([2]; adjuvant 10% w/v): 0% | avg % damage 6 DAA Poa annua ([2]; adjuvant 10% w/v): 10% | avg % damage 1 DAA Taraxacum officinale ([3]; adjuvant 1.25% w/v): 10% | avg % damage 6 DAA Taraxacum officinale ([3]; adjuvant 1.25% w/v): 0% | avg % damage 1 DAA Taraxacum officinale ([3]; adjuvant 2.5% w/v): 10% | avg % damage 6 DAA Taraxacum officinale ([3]; adjuvant 2.5% w/v): 3% | avg % damage 1 DAA Taraxacum officinale ([3]; adjuvant 5% w/v): 10% | avg % damage 6 DAA Taraxacum officinale ([3]; adjuvant 5% w/v): 20% | avg % damage 1 DAA Taraxacum officinale ([3]; adjuvant 10% w/v): 10% | avg % damage 6 DAA Taraxacum officinale ([3]; adjuvant 10% w/v): 0% | mean % damage 1 daa Stellaria media ([4]; adjuvant 1% w/v): 0% | mean % damage 7 daa Stellaria media ([4]; adjuvant 1% w/v): 5% | mean % damage 14 daa Stellaria media ([4]; adjuvant 1% w/v): 0% | mean % damage 1 daa Stellaria media ([4]; adjuvant 1.5% w/v): 0% | mean % damage 7 daa Stellaria media ([4]; adjuvant 1.5% w/v): 5% | mean % damage 14 daa Stellaria media ([4]; adjuvant 1.5% w/v): 5% | mean % damage 1 daa Stellaria media ([4]; adjuvant 2% w/v): 0% | mean % damage 7 daa Stellaria media ([4]; adjuvant 2% w/v): 10% | mean % damage 14 daa Stellaria media ([4]; adjuvant 2% w/v): 5% | mean % damage 1 daa Stellaria media ([4]; adjuvant 2.5% w/v): 0% | mean % damage 7 daa Stellaria media ([4]; adjuvant 2.5% w/v): 10% | mean % damage 14 daa Stellaria media ([4]; adjuvant 2.5% w/v): 10% | mean % damage 1 daa Veronica persica ([5]; adjuvant 1% w/v): 0% | mean % damage 7 daa Veronica persica ([5]; adjuvant 1% w/v): 5% | mean % damage 14 daa Veronica persica ([5]; adjuvant 1% w/v): 5% | mean % damage 1 daa Veronica persica ([5]; adjuvant 1.5% w/v): 0% | mean % damage 7 daa Veronica persica ([5]; adjuvant 1.5% w/v): 10% | mean % damage 14 daa Veronica persica ([5]; adjuvant 1.5% w/v): 20% | mean % damage 1 daa Veronica persica ([5]; adjuvant 2% w/v): 0% | mean % damage 7 daa Veronica persica ([5]; adjuvant 2% w/v): 10% | mean % damage 14 daa Veronica persica ([5]; adjuvant 2% w/v): 20% | mean % damage 1 daa Veronica persica ([5]; adjuvant 2.5% w/v): 0% | mean % damage 7 daa Veronica persica ([5]; adjuvant 2.5% w/v): 20% | mean % damage 14 daa Veronica persica ([5]; adjuvant 2.5% w/v): 20% | mean % damage 1 daa Poa annua ([6]; adjuvant 1% w/v): 0% | mean % damage 7 daa Poa annua ([6]; adjuvant 1% w/v): 10% | mean % damage 14 daa Poa annua ([6]; adjuvant 1% w/v): 0% | mean % damage 1 daa Poa annua ([6]; adjuvant 1.5% w/v): 0% | mean % damage 7 daa Poa annua ([6]; adjuvant 1.5% w/v): 5% | mean % damage 14 daa Poa annua ([6]; adjuvant 1.5% w/v): 0% | mean % damage 1 daa Poa annua ([6]; adjuvant 2% w/v): 0% | mean % damage 7 daa Poa annua ([6]; adjuvant 2% w/v): 5% | mean % damage 14 daa Poa annua ([6]; adjuvant 2% w/v): 5% | mean % damage 1 daa Poa annua ([6]; adjuvant 2.5% w/v): 0% | mean % damage 7 daa Poa annua ([6]; adjuvant 2.5% w/v): 5% | mean % damage 14 daa Poa annua ([6]; adjuvant 2.5% w/v): 5% | mean % damage 1 daa Trifolium repens ([7]; adjuvant 1% w/v): 0% | mean % damage 7 daa Trifolium repens ([7]; adjuvant 1% w/v): 5% | mean % damage 14 daa Trifolium repens ([7]; adjuvant 1% w/v): 0% | mean % damage 1 daa Trifolium repens ([7]; adjuvant 1.5% w/v): 0% | mean % damage 7 daa Trifolium repens ([7]; adjuvant 1.5% w/v): 5% | mean % damage 14 daa Trifolium repens ([7]; adjuvant 1.5% w/v): 0% | mean % damage 1 daa Trifolium repens ([7]; adjuvant 2% w/v): 0% | mean % damage 7 daa Trifolium repens ([7]; adjuvant 2% w/v): 5% | mean % damage 14 daa Trifolium repens ([7]; adjuvant 2% w/v): 0% | mean % damage 1 daa Trifolium repens ([7]; adjuvant 2.5% w/v): 0% | mean % damage 7 daa Trifolium repens ([7]; adjuvant 2.5% w/v): 5% | mean % damage 14 daa Trifolium repens ([7]; adjuvant 2.5% w/v): 0%

Iso-tridecyl alcohol polyglycol ether with 8 moles of ethoxylation [GenapolX080]
mean % damage 1 daa Stellaria media ([4]; adjuvant 1% w/v): 10% | mean % damage 7 daa Stellaria media ([4]; adjuvant 1% w/v): 10% | mean % damage 14 daa Stellaria media ([4]; adjuvant 1% w/v): 5% | mean % damage 1 daa Stellaria media ([4]; adjuvant 1.5% w/v): 10% | mean % damage 7 daa Stellaria media ([4]; adjuvant 1.5% w/v): 10% | mean % damage 14 daa Stellaria media ([4]; adjuvant 1.5% w/v): 0% | mean % damage 1 daa Stellaria media ([4]; adjuvant 2% w/v): 20% | mean % damage 7 daa Stellaria media ([4]; adjuvant 2% w/v): 20% | mean % damage 14 daa Stellaria media ([4]; adjuvant 2% w/v): 10% | mean % damage 1 daa Stellaria media ([4]; adjuvant 2.5% w/v): 30% | mean % damage 7 daa Stellaria media ([4]; adjuvant 2.5% w/v): 30% | mean % damage 14 daa Stellaria media ([4]; adjuvant 2.5% w/v): 10% | mean % damage 1 daa Veronica persica ([5]; adjuvant 1% w/v): 5% | mean % damage 7 daa Veronica persica ([5]; adjuvant 1% w/v): 5% | mean % damage 14 daa Veronica persica ([5]; adjuvant 1% w/v): 5% | mean % damage 1 daa Veronica persica ([5]; adjuvant 1.5% w/v): 10% | mean % damage 7 daa Veronica persica ([5]; adjuvant 1.5% w/v): 20% | mean % damage 14 daa Veronica persica ([5]; adjuvant 1.5% w/v): 20% | mean % damage 1 daa Veronica persica ([5]; adjuvant 2% w/v): 20% | mean % damage 7 daa Veronica persica ([5]; adjuvant 2% w/v): 10% | mean % damage 14 daa Veronica persica ([5]; adjuvant 2% w/v): 20% | mean % damage 1 daa Veronica persica ([5]; adjuvant 2.5% w/v): 30% | mean % damage 7 daa Veronica persica ([5]; adjuvant 2.5% w/v): 40% | mean % damage 14 daa Veronica persica ([5]; adjuvant 2.5% w/v): 40% | mean % damage 1 daa Poa annua ([6]; adjuvant 1% w/v): 0% | mean % damage 7 daa Poa annua ([6]; adjuvant 1% w/v): 10% | mean % damage 14 daa Poa annua ([6]; adjuvant 1% w/v): 0% | mean % damage 1 daa Poa annua ([6]; adjuvant 1.5% w/v): 10% | mean % damage 7 daa Poa annua ([6]; adjuvant 1.5% w/v): 30% | mean % damage 14 daa Poa annua ([6]; adjuvant 1.5% w/v): 5% | mean % damage 1 daa Poa annua ([6]; adjuvant 2% w/v): 40% | mean % damage 7 daa Poa annua ([6]; adjuvant 2% w/v): 50% | mean % damage 14 daa Poa annua ([6]; adjuvant 2% w/v): 10% | mean % damage 1 daa Poa annua ([6]; adjuvant 2.5% w/v): 40% | mean % damage 7 daa Poa annua ([6]; adjuvant 2.5% w/v): 50% | mean % damage 14 daa Poa annua ([6]; adjuvant 2.5% w/v): 20% | mean % damage 1 daa Trifolium repens ([7]; adjuvant 1% w/v): 20% | mean % damage 7 daa Trifolium repens ([7]; adjuvant 1% w/v): 20% | mean % damage 14 daa Trifolium repens ([7]; adjuvant 1% w/v): 15% | mean % damage 1 daa Trifolium repens ([7]; adjuvant 1.5% w/v): 50% | mean % damage 7 daa Trifolium repens ([7]; adjuvant 1.5% w/v): 60% | mean % damage 14 daa Trifolium repens ([7]; adjuvant 1.5% w/v): 10% | mean % damage 1 daa Trifolium repens ([7]; adjuvant 2% w/v): 50% | mean % damage 7 daa Trifolium repens ([7]; adjuvant 2% w/v): 60% | mean % damage 14 daa Trifolium repens ([7]; adjuvant 2% w/v): 15% | mean % damage 1 daa Trifolium repens ([7]; adjuvant 2.5% w/v): 50% | mean % damage 7 daa Trifolium repens ([7]; adjuvant 2.5% w/v): 60% | mean % damage 14 daa Trifolium repens ([7]; adjuvant 2.5% w/v): 10% | course of damage over time (recovery) [8]: the level of damage decreases from day 14 onwards

O=C(O)CNCP(=O)(O)O [glyphosate, N-(phosphonomethyl)glycine]
time until visual symptoms of phytotoxicity appear [9]: 7 to 10 days

Iso-tridecyl alcohol polyglycol ether with 15 Moles of ethoxylation [GenapolX-150]
avg % damage 1 DAA Stellaria media ([1]; adjuvant 1.25% w/v): 0% | avg % damage 6 DAA Stellaria media ([1]; adjuvant 1.25% w/v): 10% | avg % damage 1 DAA Stellaria media ([1]; adjuvant 2.5% w/v): 0% | avg % damage 6 DAA Stellaria media ([1]; adjuvant 2.5% w/v): 10% | avg % damage 1 DAA Stellaria media ([1]; adjuvant 5% w/v): 15% | avg % damage 6 DAA Stellaria media ([1]; adjuvant 5% w/v): 15% | avg % damage 1 DAA Stellaria media ([1]; adjuvant 10% w/v): 25% | avg % damage 6 DAA Stellaria media ([1]; adjuvant 10% w/v): 25% | avg % damage 1 DAA Poa annua ([2]; adjuvant 1.25% w/v): 0% | avg % damage 6 DAA Poa annua ([2]; adjuvant 1.25% w/v): 10% | avg % damage 1 DAA Poa annua ([2]; adjuvant 2.5% w/v): 0% | avg % damage 6 DAA Poa annua ([2]; adjuvant 2.5% w/v): 5% | avg % damage 1 DAA Poa annua ([2]; adjuvant 5% w/v): 0% | avg % damage 6 DAA Poa annua ([2]; adjuvant 5% w/v): 10% | avg % damage 1 DAA Poa annua ([2]; adjuvant 10% w/v): 0% | avg % damage 6 DAA Poa annua ([2]; adjuvant 10% w/v): 10% | avg % damage 1 DAA Taraxacum officinale ([3]; adjuvant 1.25% w/v): 10% | avg % damage 6 DAA Taraxacum officinale ([3]; adjuvant 1.25% w/v): 5% | avg % damage 1 DAA Taraxacum officinale ([3]; adjuvant 2.5% w/v): 10% | avg % damage 6 DAA Taraxacum officinale ([3]; adjuvant 2.5% w/v): 0% | avg % damage 1 DAA Taraxacum officinale ([3]; adjuvant 5% w/v): 20% | avg % damage 6 DAA Taraxacum officinale ([3]; adjuvant 5% w/v): 10% | avg % damage 1 DAA Taraxacum officinale ([3]; adjuvant 10% w/v): 10% | avg % damage 6 DAA Taraxacum officinale ([3]; adjuvant 10% w/v): 0% | visual symptoms of phytotoxicity [10]: comparatively high level of visual symptoms of phytoxicity
